Reference: patent US6559126B2 (Institut Pasteur, priority 2000, dated 2003)
pKd: −log10 of the molar value. Read-outs that look alike come from different tables or passages of the source. Ends that are not written are not given here.

Key:
KDR [1] = experiment: Competition assay of 125I-VEGF binding to CHO-KDR cells; details: for efficiency of V1 analogues in displacing 125I-VEGF165 from CHO-KDR cells: displacement curves, FIGS. 10-11; for inhibitory effect on VEGF binding to KDR (CHO-KDR cells): fixed peptide concentration 2.1×10^−4 M, heparin present
Procedure: Competition assay of binding to CHO-KDR cells. CHO-KDR cells were seeded in 24-well plates at a density of 5×10^5 cells/well. After 24 h, subconfluent plates were transferred at 4 C., and all subsequent operations were done at 4 C. […] The amount of radioactivity bound to the cells was counted in a gamma counter (LKB 1261 Multigamma). The receptor affinity and the number of binding sites per cell were determined by Scatchard's analysis (Scatchard, 1986).

CPAE cells = experiment: CPAE cell proliferation assay (BrdU incorporation); assay type: cell-based, calf
Procedure: (§1) Cell proliferation assay. To test the anti-VEGF antibody neutralizing effect, CPAE cells were plated into 96-well tissue culture plates at a density of 500 cells/well. After 24 h, various concentrations of anti-VEGF antibody were added. The cells were cultured for an additional day and cell proliferation was measured using the Cell proliferation ELISA kit from Boerhinger (Indianapolis, Ind.). Cells were incubated with BrdU for 4 h at 37 C., and the incorporation of BrdU in newly synthetized DNA was quantified by immunoassay as described by the manufacturer. To investigate the peptide effect, after 24 h of CPAE cell growth, 2.1×10^−4M synthetic peptides were added daily to the culture medium. Cell proliferation was assessed after 24 h, 48 h or 72 h as described above. […] Cells were trypsinized and counted after 5 days using a Coulter counter.

VEGF-R2 on HUV-EC cells = assay type: binding; details: for pKd: Scatchard analysis
Excerpt: (§2) Experimental conditions are indicated in the legend of FIG. 10.
(see FIGS. 16A, B and C).

HUAE cells [2] = experiment: KDR anti-idiotypic antibody (AIA)-induced HUAE cell proliferation; assay type: cell-based, human; details: 100 ng/ml KDR anti-idiotypic antibodies, peptide daily, 5 days
Procedure: as §1

HUAE cells [3] = experiment: VEGF-induced HUAE cell proliferation; assay type: cell-based, human; details: 2 ng/ml VEGF, peptide daily, counted after 5 days
Procedure: as §1

neuropilin 1 (NP1) = molecular target: T1, neuropilin 1 (NP1) (Homo sapiens, UniProt O14786); experiment: Displacement of 125I-VEGF165 binding to MDA-MB 231 cells; details: cells without VEGF-R2, expressing NP1; read-out: CI 50 of inhibition of 125I VEGF165 binding to MDA-MB cells (converted)
T1 construct: endogenous in cells; host or cells: MDA-MB 231 breast tumoral cell line
T1 sequence (O14786 22-923): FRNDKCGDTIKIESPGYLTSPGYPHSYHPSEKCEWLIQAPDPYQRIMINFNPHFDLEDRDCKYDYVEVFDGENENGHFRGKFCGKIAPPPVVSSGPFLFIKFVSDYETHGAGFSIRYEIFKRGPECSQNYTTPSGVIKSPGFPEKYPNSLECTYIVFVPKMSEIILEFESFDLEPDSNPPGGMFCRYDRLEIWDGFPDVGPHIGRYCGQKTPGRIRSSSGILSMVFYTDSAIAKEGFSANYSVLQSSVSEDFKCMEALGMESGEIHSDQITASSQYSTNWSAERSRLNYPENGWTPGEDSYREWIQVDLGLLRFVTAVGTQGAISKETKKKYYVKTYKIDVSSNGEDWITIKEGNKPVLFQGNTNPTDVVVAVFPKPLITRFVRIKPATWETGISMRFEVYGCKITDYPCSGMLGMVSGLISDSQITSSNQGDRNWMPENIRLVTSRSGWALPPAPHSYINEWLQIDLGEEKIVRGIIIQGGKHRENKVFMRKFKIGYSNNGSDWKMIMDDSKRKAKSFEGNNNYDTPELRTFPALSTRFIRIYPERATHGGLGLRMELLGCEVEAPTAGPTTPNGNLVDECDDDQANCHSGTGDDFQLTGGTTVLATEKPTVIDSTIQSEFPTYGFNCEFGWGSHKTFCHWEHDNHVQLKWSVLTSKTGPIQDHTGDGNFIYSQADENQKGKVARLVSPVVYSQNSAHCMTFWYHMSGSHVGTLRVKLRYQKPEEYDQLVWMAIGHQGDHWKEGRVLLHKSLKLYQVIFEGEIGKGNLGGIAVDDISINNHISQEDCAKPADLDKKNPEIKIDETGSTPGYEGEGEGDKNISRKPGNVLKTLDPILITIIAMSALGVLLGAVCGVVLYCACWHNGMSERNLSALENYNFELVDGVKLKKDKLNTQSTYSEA
Excerpt: as §2

HUVEC = experiment: VEGF165-induced HUVEC proliferation; assay type: cell-based, human; details: V1 400 μg/ml, various VEGF165 concentrations, 96 hours
Procedure: FIG. 13 Effect of V1 (400 μg/ml) VEGF165 induced HUVEC proliferation. Various concentrations of VEGF165 were added during 96 hours.
The inhibitory effect of V1 on Human umbilical vein endothelial cell (HUVEC) in primary culture.

KDR [4] = molecular target: T2, KDR (Homo sapiens, UniProt P35968); experiment: ELISA of phage-displayed peptide binding to CHO-KDR cells; details: clones selected by anti-VEGF antibody binding, 10^12 pfu/ml
T2 construct: expressed in transfected cells; host or cells: glycosaminoglycan-deficient pgsA 745 CHO cells, psV-7d expression vector
T2 sequence (P35968 20-1356): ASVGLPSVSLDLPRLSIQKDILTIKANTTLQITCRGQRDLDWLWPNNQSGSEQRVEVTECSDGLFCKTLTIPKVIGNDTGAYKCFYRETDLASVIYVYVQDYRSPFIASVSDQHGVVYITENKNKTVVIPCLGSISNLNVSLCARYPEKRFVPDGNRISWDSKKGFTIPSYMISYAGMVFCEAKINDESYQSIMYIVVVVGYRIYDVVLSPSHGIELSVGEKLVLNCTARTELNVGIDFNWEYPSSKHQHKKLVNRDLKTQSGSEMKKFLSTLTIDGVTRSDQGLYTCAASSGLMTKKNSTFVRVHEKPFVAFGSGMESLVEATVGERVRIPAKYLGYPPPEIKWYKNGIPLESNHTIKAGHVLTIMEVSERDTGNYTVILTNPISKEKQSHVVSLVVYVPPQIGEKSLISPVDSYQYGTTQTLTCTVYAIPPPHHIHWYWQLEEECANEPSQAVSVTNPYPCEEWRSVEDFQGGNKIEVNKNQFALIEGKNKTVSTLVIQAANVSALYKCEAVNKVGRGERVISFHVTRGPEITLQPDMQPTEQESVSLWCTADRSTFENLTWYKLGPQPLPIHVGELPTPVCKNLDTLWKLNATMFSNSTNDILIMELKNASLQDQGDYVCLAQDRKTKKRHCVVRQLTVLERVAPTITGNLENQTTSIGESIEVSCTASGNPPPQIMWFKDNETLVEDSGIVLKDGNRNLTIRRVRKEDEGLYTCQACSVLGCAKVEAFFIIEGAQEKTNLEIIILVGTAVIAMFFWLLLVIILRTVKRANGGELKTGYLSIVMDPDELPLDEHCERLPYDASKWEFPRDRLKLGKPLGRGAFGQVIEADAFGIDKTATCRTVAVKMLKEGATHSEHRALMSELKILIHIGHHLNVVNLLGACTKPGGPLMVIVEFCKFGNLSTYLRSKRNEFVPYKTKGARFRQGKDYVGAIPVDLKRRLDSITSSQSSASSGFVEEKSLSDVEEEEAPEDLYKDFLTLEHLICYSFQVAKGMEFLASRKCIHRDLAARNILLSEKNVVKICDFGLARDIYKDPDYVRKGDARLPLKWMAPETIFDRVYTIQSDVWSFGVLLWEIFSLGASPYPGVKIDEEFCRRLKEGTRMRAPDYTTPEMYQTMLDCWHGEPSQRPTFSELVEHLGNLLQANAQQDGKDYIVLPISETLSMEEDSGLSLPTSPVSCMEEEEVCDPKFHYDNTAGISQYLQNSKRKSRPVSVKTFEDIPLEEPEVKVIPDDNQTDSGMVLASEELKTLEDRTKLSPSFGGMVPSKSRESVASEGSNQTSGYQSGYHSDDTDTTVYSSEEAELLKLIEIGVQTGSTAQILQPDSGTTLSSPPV
Procedure: Exponentially growing CHO-KDR cells were seeded in 96-well microtiter plates at 7×10^4 cells/well and left overnight at 37 C. Cells were fixed with paraformaldehyde (4% in PBS) for 15 min at room temperature and washed with PBS. Wells were then filled with PBS-Glycine 0.2%, kept for 15 min at room temperature and then washed with PBS. Phage particles (10^12 or 10^13/Ml) were added to each well and incubated 2 h at room temperature. Wells were washed with PBS and the amount of bound phage was detected with peroxidase-conjugated anti-M13 phage serum (Pharmacia Biotech, Uppsala, Sweden).

[5] = system: VEGF-R2-VEGF165 and NP1-VEGF165 complexes; experiment: Cross linking of I125 VEGF165 to HUV-EC cells; assay type: binding, human; details: V1 2.4×10−4M and 4.8×10−4M, I125 VEGF165 160 pM
Excerpt: FIG. 19: Cross linking of I125 VEGF165 (160 pM) to HUV-EC cells. 1: Total binding. […] 3: V1, (2.4×10−4M). 4: V1, (4.8×10−4M).
The 240-260 kDa complex could correspond to the […] complex and the 160-170 kDa complex could correspond to the NP1 -VEGF 165 complex. The labeling of the two complexes was decreased in the presence of the V1 peptide. (FIG. 19)

[6] = system: VEGF-induced corneal angiogenesis; experiment: Rabbit corneal pocket assay; assay type: in vivo; details: day 12; for effect on VEGF-induced corneal angiogenic response: implant with 2 pmol VEGF and 30 nmol peptide; for corneal neovascularization by peptide alone vs vehicle: implant with 30 nmol peptide, no VEGF
Procedure: Rabbit corneal pocket assay. […] These implants were inserted in New Zealand rabbit (Elevage du Trottis, Esperce, France) corneal stroma 2 mm away from the limbus (Favard et al, 1991). Neovascularization was assessed on day 12 by direct examination with a slit lamp and scored according to a 4 grade scale (grade 1: less than 1 mm long neovessels, grade 2: 1 mm long neovessels, grade 3: 1 to 2 mm long neovessels, grade 4: neovessels extending to the implant). Means and standard deviations were determined on 8 implant groups for each condition.

Substance: ATWLPPA [A7]
- efficiency of V1 analogues in displacing 125I-VEGF165 from CHO-KDR cells (KDR [1]): totally devoid of activity

Substance: ATWLPPR [V1, ATWLPPR]
- effect on affinity of I125 VEGF165 for receptors of transfected CHO cells (Scatchard) (KDR [1]; V1 50 μg/ml): lowered
- effect on heparin-dependent VEGF165 binding to transfected CHO cells (KDR [1]; V1 50 μg/ml): inhibited this heparin agonistic effect
- inhibitory effect on VEGF binding to KDR (CHO-KDR cells) (KDR [1]): showed an inhibitory effect
- reduction of CPAE cell proliferation (CPAE cells; 2.1×10^−4 M peptide, 24 h): 60%
- effect on VEGF binding to HUV-EC cells (VEGF-R2 on HUV-EC cells; V1 40 μg/ml, Scatchard): inhibited only the VEGF binding to high affinity receptors
- inhibition of AIA-dependent HUAE cell proliferation (HUAE cells [2]): could suppress the AIA-dependent cell proliferation
- inhibition of VEGF-induced HUAE cell proliferation (HUAE cells [3]): suppressed the mitogenic activity of VEGF in a dose dependent manner
- IC50 (neuropilin 1 (NP1)): 45200 nM
- inhibition of VEGF-induced HUVEC proliferation (HUVEC): inhibited by V1 in a non competitive manner
- ELISA signal of phage clones on CHO-KDR cells (KDR [4]): best reactivities
- labeling of the two 125I-VEGF-receptor complexes [5]: decreased
- effect on VEGF-induced corneal angiogenic response [6]: totally abolished
- corneal neovascularization by peptide alone vs vehicle [6]: did not improve the generation of new blood vessels

Substance: ATALPP [A10]
- efficiency of V1 analogues in displacing 125I-VEGF165 from CHO-KDR cells (KDR [1]): significantly reduced the peptide efficiency

Substance: SLPAHAR [K4]
- effect on endothelial cell growth (words, discussion) (CPAE cells; in vitro): minor effect on endothelial growth

Substance: VEGF
- pKd (VEGF-R2 on HUV-EC cells; read-out: Kd of I125 VEGF165 on HUV-EC cells, high affinity receptors): 9.93
- pKd (VEGF-R2 on HUV-EC cells; read-out: Kd of I125 VEGF165 on HUV-EC cells, second (lower affinity) receptors): 8.64

Substance: LPPNPTK [V6]
- inhibitory effect on VEGF binding to KDR (CHO-KDR cells) (KDR [1]): no effect on VEGF binding to KDR
- ELISA signal of phage clones on CHO-KDR cells (KDR [4]): best reactivities

Substance: AAWLPPK [A9, V1 analogue, substitution of the C-terminal arginine by lysine]
- efficiency of V1 analogues in displacing 125I-VEGF165 from CHO-KDR cells (KDR [1]): reduced the peptide efficiency

Substance: Heparin [reference compound]
- optimal heparin concentration for increasing VEGF binding to CHO-KDR cells (KDR [1]): 1.8 µg/mL

Substance: ILDNYKL [V5]
- effect on VEGF binding to CHO-KDR cells, various concentrations (KDR [1]; same conditions as V1 dose response, FIG. 5): did not modify VEGF binding
- inhibition of AIA-dependent HUAE cell proliferation (HUAE cells [2]): unlike V5, V1 could suppress
- inhibition of VEGF-induced HUAE cell proliferation (HUAE cells [3]): no inhibitory effect
- effect on VEGF-induced corneal angiogenic response [6]: not modified
- corneal neovascularization by peptide alone vs vehicle [6]: did not improve the generation of new blood vessels
